Reference: patent US4100276A, “Fusidic acid derivatives” (priority 1975, dated 1978)
≈ marks a conversion by molar mass, not a printed value. Entries after “also recorded” stand apart in the source; their conditions may differ. Counter-ions that a name gives are not always drawn. Like-named read-outs stand apart in the source and are kept apart here.

How the values were obtained:
[1] = system: Staph. aureus, Leo CC178H2 (fusidic acid resistant strain); assay: In vitro activity, concentration required for 50% inhibition (Table A); type: cell-based; details: Staphylococcus aureus, read-out: Concentration required for 50% inhibition (IC50)
[2] = system: Bacteroides fragilis, Leo JA2; assay: as above; type: cell-based; details: Bacteroides fragilis, LEOJA2, read-out: Concentration required for 50% inhibition (IC50)
[3] = system: Staphylococcus aureus Leo CC178B; assay: as above; type: cell-based; details: Staphylococcus aureus, LEOCC178B, read-out: Concentration required for 50% inhibition (IC50)
Streptococcus pyogenes = assay: In vitro bactericidal effect, viable counts (Example 44); type: cell-based; details: 10 μg/ml, NIH broth, 37° C; for Viable count after 0 hr: 0 hr (inoculum)
Method: In vitro bactericidal effect of 3α,11α-dihydroxy-16β-phenylthiofusida-13(17),24-dien-21-oic acid compared to that of fusidic acid […]
To two tubes containing NIH broth was added: a. The sodium salt of 3α,11α-dihydroxy-16β-phenylthiofusida-13(17),24-dien-21-oic acid (10 μg/ml) […]
b. The sodium salt of fusidic acid (10 μg/ml)
The tubes were inoculated with Streptococcus pyogenes to give 9.2×10^4 organisms per ml, incubated at 37° C, and the viable counts were determined at intervals.
A third tube was treated similarly without addition of any of the antibiotics and used as a control: […]

[4] = system: Streptococcus sp. Leo EG2; assay: In vitro activity, concentration required for 50% inhibition (Table A); type: cell-based; details: Streptococcus, read-out: Concentration required for 50% inhibition (IC50)
Staphylococcus aureus [5] = assay: In vitro effect of combination with dihydro-fusidic acid, viable counts (Example 46); type: cell-based; details: tubes a, b 10 μg/ml, tube c 5 + 5 μg/ml
Method: In vitro-effect of the combination of dihydro-fusidic acid and 3α,11α-dihydroxy-16β-phenylthio-fusida-13(17),24-dien-21- oic acid
To three tubes containing NIH broth was added:
a. The sodium salt of dihydro-fusidic acid (10 μg/ml).
b. The sodium salt of 3α,11α-dihydroxy-16-phenylthiofusida-13(17),24-dien-21-oic acid (10 μg/ml).
c. A mixture of the sodium salts of dihydro-fusidic acid (5 μg/ml) and 3α,11α-dihydroxy-16-phenylthiofusida-13(17),24-dien-21-oic acid (5 μg/ml).
The tubes were inoculated with Staphylococcus aureus to give 5.2 × 10^5 organisms per ml, incubated at 37° C for 96 hours, and the viable counts were determined.
(§1) A fourth tube was treated similarly without addition of any of the antibiotics and used as a control: […]

Staph. aureus Leo CJ145 = assay: In vitro activity, concentration required for 50% inhibition (Table A); type: cell-based; details: Staphylococcus aureus, LEOCJ145, read-out: Concentration required for 50% inhibition (IC50)
[6] = system: Streptococcus pyogenes Leo EC; assay: as above; type: cell-based; details: Streptococcus pyogenes, read-out: Concentration required for 50% inhibition (IC50)
Corynebact. acnes Leo FN = assay: as above; type: cell-based, Corynebacterium acnes; details: Cutibacterium acnes, read-out: Concentration required for 50% inhibition (IC50)
Staphylococcus aureus [7] = assay: In vitro effect of combination with fusidic acid, viable counts (Example 45); type: cell-based; details: 24 hours; for Viable count: 37° C, fusidic acid 1 μg/ml (tube a), isopropylthio compound 3 μg/ml (tube b), mixture 1 + 3 μg/ml (tube c), inoculum 1.4×10^4; for Resistance of surviving organisms to the compound / development of resistance: fusidic acid 1 μg/ml, isopropylthio compound 3 μg/ml, mixture 1 + 3 μg/ml
Method: In vitro-effect of the combination of fusidic acid and 3α,11α-dihydroxy-16β-isopropylthio-fusida-13(17),24-dien- 21-oic acid
To 3 tubes containing NIH broth was added:
a. The sodium salt of fusidic acid (1 μg/ml).
b. The sodium salt of 3α,11α-dihydroxy-16-isopropylthiofusida-13(17),24-dien-21-oic acid (3 μg/ml).
c. A mixture of the sodium salts of fusidic acid (1 μg/ml) and 3α,11α-dihydroxy-16-isopropylthiofusida-13(17),24-dien-21-oic acid (3 μg/ml).
The tubes were inoculated with Staphylococcus aureus to give 1.4×10^4 organisms per ml, incubated at 37° C for 24 hours, and the viable counts were determined.
as §1

[8] = system: Staph. aureus (Leo CC 178B), fusidic acid sensitive strain; assay: microbe, parasite or virus in culture; type: cell-based; details: Staphylococcus aureus, isolates from "Comp. of Ex 8 cult." (48 hours pretreatment)
[9] = system: Staph. aureus (Leo CC 178B), fusidic acid sensitive strain; assay: microbe, parasite or virus in culture; type: cell-based; details: for IC50: Staphylococcus aureus
Method: Prevention of development of resistance against fusidic acid as a result of treating Staph. aureus with the sodium salt of 3α,11α-dihydroxy-16β-isopropylthiofusida-13(17),24-dien-21-oic acid
After a 48 hours pretreatment of a fusidic acid sensitive strain of Staph. aureus (Leo CC 178B) with subinhibitory concentrations of fusidic acid or the compound of Example 9. The sensitivities of the pretreated cultures and of the original strain against the two compounds were determined. The determinations were made by serial dilutions in NIH-broth, inoculum size 2.10^5 organisms/ml, and read as IC50 after 18 and 48 hours.

[10] = Absorption from the gastro-intestinal tract; details: in vivo
bacteria = assay: In vitro investigations of antibacterial activity (general statements); type: cell-based
[11] = 18 h, isolates from control culture, inoculum 2.10^5 organisms/ml, NIH-broth, read-out: IC50, 18 hours
[12] = 48 h, isolates from control culture, inoculum 2.10^5 organisms/ml, NIH-broth, read-out: IC50, 48 hours
[13] = isolates from fusidic acid pretreated culture (48 hours pretreatment), read-out: IC50, 18 hours
[14] = isolates from fusidic acid pretreated culture (48 hours pretreatment), read-out: IC50, 48 hours

Structure (SMILES): CC(C)=CCCC(C(=O)O)C1=C2C[C@@H](O)[C@H]3[C@@]4(C)CC[C@@H](O)[C@@H](C)[C@@H]4CC[C@]3(C)[C@@]2(C)C[C@@H]1Sc1ccccc1 (stereo partly drawn) [Example 1, 3α,11α-Dihydroxy-16β -phenylthiofusida-13(17), 24-dien-21-oic acid sodium salt]
- IC50 [1]: 1.6 µg/mL
- IC50 [2]: 20 µg/mL
- IC50 [3]: 1.6 µg/mL
- Viable count after 0 hr (Streptococcus pyogenes): 9.2 × 10^4 organisms per ml
- Viable count after 1.5 hr (Streptococcus pyogenes; inoculum 9.2×10^4): 1.4 × 10^4 organisms per ml
- Viable count after 4 hr (Streptococcus pyogenes; inoculum 9.2×10^4): 5.7 × 10^2 organisms per ml
- IC50 [4]: 1.6 µg/mL
- Viable counts after 6 1/2 hours (Staphylococcus aureus [5]; 37° C, inoculum 5.2 × 10^5): 1.1 × 10^4 organisms per ml
- Viable counts after 2 hours (Staphylococcus aureus [5]; 37° C, inoculum 5.2 × 10^5): 5.2 × 10^4 organisms per ml
- Viable counts after 24 hours (Staphylococcus aureus [5]; 37° C, inoculum 5.2 × 10^5): 3.1 × 10^6 organisms per ml
- Resistance of surviving organisms to the compound / development of resistance (Staphylococcus aureus [5]; 96 hours): resistant to 3α,11α-dihydroxy-16β-phenylthio-fusida-13(17),24-dien-21- oic acid
- IC50 (Staph. aureus Leo CJ145): 3.2 µg/mL
- IC50 [6]: 0.5 µg/mL
- IC50 (Corynebact. acnes Leo FN): 0.5 µg/mL

Structure (SMILES): CC(=O)O[C@H]1C[C@@]2(C)[C@@H](C[C@@H](O)[C@H]3[C@@]4(C)CC[C@@H](O)[C@@H](C)[C@@H]4CC[C@@]32C)/C1=C(\CCC=C(C)C)C(=O)O [sodium salt of fusidic acid]
- Viable count (Staphylococcus aureus [7]): 1.8 × 10^8 organisms per ml
- Viable count after 0 hr (Streptococcus pyogenes): 9.2 × 10^4 organisms per ml
- Viable count after 1.5 hr (Streptococcus pyogenes; inoculum 9.2×10^4): 1.2 × 10^5 organisms per ml
- Viable count after 4 hr (Streptococcus pyogenes; inoculum 9.2×10^4): 1.5 × 10^5 organisms per ml
- Viable count after 7 hr (Streptococcus pyogenes; inoculum 9.2×10^4): 1.3 × 10^5 organisms per ml

Structure (SMILES): CC(C)=CCCC(C(=O)O)C1=C2C[C@@H](O)[C@H]3[C@@]4(C)CC[C@@H](O)[C@@H](C)[C@@H]4CC[C@]3(C)[C@@]2(C)C[C@@H]1SC(C)C (stereo partly drawn) [Example 9, 3α,11α-dihydroxy-16β-isopropylthiofusida-13(17), 24-dien-21-oic acid sodium salt]
- IC50 ([8]; read-out: IC50, 18 hours): 5 µg/mL
- IC50 ([8]; read-out: IC50, 48 hours): 16 µg/mL
- Viable count (Staphylococcus aureus [7]): 1.5 × 10^6 organisms per ml
- Resistance of surviving organisms to the compound / development of resistance (Staphylococcus aureus [7]): resistant to 3α,11α-dihydroxy-16β-isopropylthio-fusida-13(17),24-dien- 21-oic acid
- Emergence of resistance against fusidic acid / change of sensitivity after pretreatment ([9]; 48 hours pretreatment with subinhibitory concentrations, sodium salt): Only a slight decrease of the sensitivity; also recorded: totally prohibited the emergence of resistance against fusidic acid
- IC50 [9, 11]: 2 µg/mL
- IC50 [9, 12]: 5 µg/mL
- IC50 [9, 13]: 1.6 µg/mL
- IC50 [9, 14]: 5 µg/mL

Structure (SMILES): CC(=O)O[C@H]1C[C@@]2(C)[C@@H](C[C@@H](O)[C@H]3[C@@]4(C)CC[C@@H](O)[C@@H](C)[C@@H]4CC[C@@]32C)/C1=C(\CCC=C(C)C)C(=O)O [Fusidic acid]
- Absorption from the gastro-intestinal tract (in words) [10]: absorbed efficiently from the gastro-intestinal tract
- IC50 [1]: 32 µg/mL (≈ 61.9 µM)
- IC50 [2]: 1.6 µg/mL (≈ 3.1 µM)
- IC50 ([8]; read-out: IC50, 18 hours): 0.016 µg/mL (≈ 0.031 µM)
- IC50 ([8]; read-out: IC50, 48 hours): 0.02 µg/mL (≈ 0.0387 µM)
- Resistance of surviving organisms to the compound / development of resistance (Staphylococcus aureus [7]): resistant to fusidic acid
- IC50 [3]: 0.025 µg/mL (≈ 0.0484 µM)
- IC50 [4]: 1.6 µg/mL (≈ 3.1 µM)
- IC50 (Staph. aureus Leo CJ145): 16 µg/mL (≈ 31 µM)
- IC50 [6]: 0.63 µg/mL (≈ 1.22 µM)
- IC50 [9, 11]: 0.016 µg/mL (≈ 0.031 µM)
- IC50 [9, 12]: 1 µg/mL (≈ 1.94 µM)
- IC50 [9, 13]: 7.9 µg/mL (≈ 15.3 µM)
- IC50 [9, 14]: 50 µg/mL (≈ 96.8 µM)
- Antibacterial effect, bactericidal/bacteriostatic (in words) (bacteria): solely bacteriostatic
- IC50 (Corynebact. acnes Leo FN): 0.2 µg/mL (≈ 0.387 µM)
